The values below come from patent publication US4792614A, “Substituted furans as inhibitors of 3-hydroxy-3-methylglutaryl-coa reductase” (American Home Products Corporation, priority 1987, dated 1988).

The first experiment concerns biosynthesis of cholesterol.
Test: not given
Conditions: background art; cited from earlier work.
Consider `CC[C@H](C)C(=O)O[C@H]1CCC=C2C=C[C@H](C)[C@H](CC[C@@H]3C[C@@H](O)CC(=O)O3)[C@H]21` [compactin], for which the “inhibition of the biosynthesis of cholesterol (in words)” value is reported as “inhibited”.
As to `CCC(C)C(=O)OC1CC(C)C=C2C=CC(C)C(CCC3CC(O)CC(=O)O3)C21` (stereo not drawn) [mevinolin], the “inhibition of the biosynthesis of cholesterol (in words)” value is given as “more effectively”.

Another experiment deals with T1, HMG--CoA reductase (Rattus norvegicus, UniProt P51639).
T1 construct: the microsomal fraction is isolated by differential ultracentrifugation to obtain HMG--CoA reductase enzyme; from tissue; host or cells: rat liver, microsomal fraction
T1 sequence (P51639 1-887): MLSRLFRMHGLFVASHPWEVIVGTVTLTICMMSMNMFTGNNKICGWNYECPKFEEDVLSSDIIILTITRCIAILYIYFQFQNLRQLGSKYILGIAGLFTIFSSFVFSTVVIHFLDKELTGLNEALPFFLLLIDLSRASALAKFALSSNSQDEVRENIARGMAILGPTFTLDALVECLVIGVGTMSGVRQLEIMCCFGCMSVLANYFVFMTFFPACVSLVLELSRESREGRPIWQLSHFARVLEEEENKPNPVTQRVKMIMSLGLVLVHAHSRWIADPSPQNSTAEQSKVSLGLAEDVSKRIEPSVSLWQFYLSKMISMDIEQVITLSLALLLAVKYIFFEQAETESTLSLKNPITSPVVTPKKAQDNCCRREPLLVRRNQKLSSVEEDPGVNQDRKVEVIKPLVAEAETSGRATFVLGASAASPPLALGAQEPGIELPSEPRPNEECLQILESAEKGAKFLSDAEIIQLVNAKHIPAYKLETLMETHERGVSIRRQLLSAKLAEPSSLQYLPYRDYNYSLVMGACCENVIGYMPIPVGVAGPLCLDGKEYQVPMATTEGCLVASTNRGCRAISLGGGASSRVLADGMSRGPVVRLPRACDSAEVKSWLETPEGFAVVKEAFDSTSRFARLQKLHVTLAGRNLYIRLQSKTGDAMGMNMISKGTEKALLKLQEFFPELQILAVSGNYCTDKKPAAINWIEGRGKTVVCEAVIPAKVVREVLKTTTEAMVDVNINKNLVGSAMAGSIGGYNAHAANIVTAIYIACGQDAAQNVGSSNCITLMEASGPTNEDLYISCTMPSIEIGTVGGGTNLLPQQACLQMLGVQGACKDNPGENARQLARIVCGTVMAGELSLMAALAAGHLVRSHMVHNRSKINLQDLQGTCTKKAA
The experiment can be described thus: Inhibition of HMG-CoA reductase (microsomal enzyme from rat liver, [14C] HMG-CoA reduction to mevalonolactone). It is filed as biochemical. Conditions: rat liver microsomal fraction; compound tested as the dihydroxy sodium carboxylate, 10^-3 to 10^-6 M; 20 minute incubation at 37° C. An excerpt:
The HMG--CoA reductase inhibitory properties of representative compounds of this invention were established by subjecting the compounds to the following standard experimental test procedure adapted from Rodwell et al., Adv. Lipid Res. 14 1, 1976; Endo et al., FEBS Letters 72 323, 1976; and Tanzawa et al., Biochemia et Biophysica Acta 488 97, 1977.
Rat livers obtained from rats fed on a diet containing 3% cholestyramine and maintained on a reverse lighting regimen for three weeks are homogenized and the microsomal fraction is isolated by differential ultracentrifugation to obtain HMG--CoA reductase enzyme. To a preincubated (five minutes at 37° C.) solution of the compound being tested (as the dihydroxy sodium carboxylate in amounts from 10^-3 to 10^-6 M) in TEDKS100 pH (Tris®40 mM; EDTA 1 mM; dithiothreitol 5 mM; KCl 70 mM; sucrose 100 mM), 7.5 buffer or DMSO dissolved in an assay medium containing 20 μl of 2.5M KCl; 20 μl NADPH (reduced nicotinamide adenine dinucleotide phosphate) (7.5 mM); and 40 μl of labeled (RS) HMG--CoA (3--^14 C; […]; 200 μM) is added 10 μl of preincubated (five minutes at 37° C.) microsomal fraction to obtain a total volume of 125 μl. After a twenty minute incubation period at 37° C., reaction of the enzyme is terminated by addition of 10 μl of 70% HClO4. The assay tubes are then centrifuged for two minutes in a Beckman microfuge II.
To 100 μl of the supernatant liquid is added 10 μl of non-radioactivemevalonic acid lactone (0.25M in 8 mM H2 SO4). An aliquot of the sample is eluted with 8 mM H2 SO4 through Bio Rad Aminex HPX-87H (HPLC; Hewlett-Packard Model 1084B) at a flow rate of 1 mL/minute. The effluent is fractionated, Hydrofluor® is added and radioactivity of the [^14 C] mevalonolactone produced by reduction of [^14 C] HMG--CoA determined with a scintillation counter.
The percent inhibition of HMG--CoA reductase activity is obtained by comparison with a control assay devoid of the test compound. The inhibitory concentration (IC50) is calculated for the various test compounds.
`COC(=O)C[C@@H](O)C[C@H](O)/C=C/c1oc(C)cc1-c1ccc(F)cc1` [Example 1, (3S,5S,E)-7-[5-Methyl-3-(4-Fluorophenyl)-2-Furanyl]-3,5-Dihydroxy-6-Heptenoic Acid Methyl Ester] returned a concentration for half-maximal inhibition (IC50) of 62 µM.
Same read-out and setting: with `COC(=O)C[C@@H](O)C[C@H](O)/C=C/c1oc(C)cc1-c1ccccc1` [Example 2, (3S,5S,E)-7-[5-Methyl-3-Phenyl-2-Furanyl]-3,5-Dihydroxy-6-Heptenoic Acid Methyl Ester] the figure was 99 µM.
Same read-out and setting: with `COC(=O)C[C@@H](O)C[C@H](O)/C=C/c1occc1-c1ccc(F)cc1` [Example 3, (3S,5S,E)-7-[3-(4-Fluorophenyl)-2-Furanyl]-3,5-Dihydroxy-6-Heptenoic Acid Methyl Ester] the figure was 56 µM; with `COC(=O)C[C@@H](O)C[C@H](O)/C=C/c1ccc(-c2ccc(C(F)(F)F)cc2[N+](=O)[O-])o1` [Example 4, (3S,5S,E)-3,5-Dihydroxy-7-[5-[4-(Trifluoromethyl)-2-Nitrophenyl]-2-Furanyl]-6-Heptenoic Acid Methyl Ester], 100 µM.

By IC50 is commonly meant the midpoint of a concentration-inhibition curve. Low readings indicate higher potency, high ones lower potency.
